Laboratory results reported in publication PMC11971408, “Cryo-EM analyses unveil details of mechanism and targocil-II mediated inhibition of S. aureus WTA transporter TarGH” (Nature Communications, 2025).

Tests used:
[1] = target: T1, TarH (TarGH nucleotide binding domain) (Staphylococcus aureus, UniProt Q2FJ01); test: malachite green ATPase assay of purified TarGH (Michaelis-Menten); assay type: biochemical
T1 construct: gene tagH; full-length TarH (residues 1–264) in TarG2H2 heterotetramer; with TarG (A0A0H2XIF1)
T1 sequence (Q2FJ01 whole entry, the tested form may be a part): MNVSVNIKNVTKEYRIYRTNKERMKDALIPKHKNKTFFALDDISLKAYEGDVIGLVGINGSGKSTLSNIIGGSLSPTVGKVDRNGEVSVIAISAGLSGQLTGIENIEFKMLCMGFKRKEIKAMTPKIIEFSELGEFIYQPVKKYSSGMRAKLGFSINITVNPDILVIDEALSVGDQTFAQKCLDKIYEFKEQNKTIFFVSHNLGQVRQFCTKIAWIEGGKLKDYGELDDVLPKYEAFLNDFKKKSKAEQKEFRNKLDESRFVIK
T1 sequence (A0A0H2XIF1 1-270 partner): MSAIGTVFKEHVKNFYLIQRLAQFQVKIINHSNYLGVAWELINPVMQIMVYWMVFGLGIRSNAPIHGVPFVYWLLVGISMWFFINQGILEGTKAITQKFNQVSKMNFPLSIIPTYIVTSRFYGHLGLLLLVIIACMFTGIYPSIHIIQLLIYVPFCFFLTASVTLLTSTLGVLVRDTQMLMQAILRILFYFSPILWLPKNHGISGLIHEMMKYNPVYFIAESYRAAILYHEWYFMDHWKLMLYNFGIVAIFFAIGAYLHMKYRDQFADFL

[2] = target: T1, TarH (TarGH nucleotide binding domain); test: cryo-EM structure at […] Å
[3] = target: T2, TarG (TarGH WTA transporter, transmembrane domain) (Staphylococcus aureus, UniProt A0A0H2XIF1); test: cryo-EM structures ([…] Å with AMP-PNP; […] Å with ATPγS), MST; IC50 from malachite green ATPase assay of purified TarGH; assay type: biochemical
T2 construct: gene tagG; full-length TarG with N-terminal His tag, co-expressed with TarH (residues 1–264) as TarG2H2 heterotetramer; with TarH (Q2FJ01)
T2 sequence (A0A0H2XIF1 1-270): as the sequence (A0A0H2XIF1 1-270 partner) above
T2 sequence (Q2FJ01 whole entry partner, the tested form may be a part): as the sequence (Q2FJ01 whole entry, the tested form may be a part) above

Nc1ncnc2c1ncn2[C@@H]1O[C@H](COP(=O)(O)OP(=O)(O)OP(=O)(O)O)[C@@H](O)[C@H]1O [ATP]
malachite green ATPase assay of purified TarGH (Michaelis-Menten) [1]: ~ 70 mol Pi/min mol protein

Nc1ncnc2c1ncn2[C@@H]1O[C@H](CO[P@](=O)(O)O[P@](=O)(O)O[P@@](=O)(O)S)[C@@H](O)[C@H]1O [ATPγS]
cryo-EM structure at 2.3 Å [2]: ATPγS is well resolved at the TarH dimer interface, forming characteristic interactions with the ABC motifs

Cc1c(CC(=O)N2CCC[C@H]2C(=O)O)c(=O)oc2c(C)c3occ(-c4ccc(Cl)cc4)c3cc12 [targocil-II]
IC50 [3]: 6.5 ± 1.2 µM
